How the values were obtained:
Assay type in all cases: in vivo
[1] = system: Echinochloa crus-galli (ECHCG); assay: Herbicidal pre-emergence action, section C (Table C3); conditions: visual grading after ca. 3 weeks vs untreated controls; for pest or weed control at 80 g/ha: Echinochloa crus-galli, pre-emergence, 504 h, read-out: pre-emergence activity against ECHCG in %
Procedure, shortened: (§1)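 Pre-emergence, sandy loam. WP/EC formulations applied to covering soil surface, aqueous, + 0.5% additive, 600 l water/ha. Greenhouse, optimum growth. Visual % damage vs untreated, ca. 3 wk.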

[2] = system: Matricaria inodora (MATIN); assay: Herbicidal pre-emergence action, section A (Table A6); conditions: visual grading after ca. 3 weeks vs untreated controls; for pest or weed control at 320 g/ha: Tripleurospermum inodorum, pre-emergence, 504 h, read-out: pre-emergence activity against MATIN in %
Procedure, shortened: (§2)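 Percent herbicidal effect relative to untreated plants (0% = as control, 100% = died off) scored visually about 3 weeks after treatment. Compounds formulated as WP or EC were sprayed at 600 L/ha with 0.5% additive onto covering soil of freshly sown sandy-loam pots, then kept under greenhouse conditions.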

Stellaria media (STEME) = assay: Herbicidal pre-emergence action, section A (Table A9); conditions: for pest or weed control at 320 g/ha: Stellaria media, 504 h, read-out: pre-emergence activity against STEME in %
Procedure, shortened: as §2

[3] = system: Polygonum convolvulus (POLCO); assay: Herbicidal post-emergence action, section E (Table E7); conditions: visual assessment ca. 3 weeks after spraying
Procedure, shortened: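 Post-emergence greenhouse spray onto single-leaf-stage plants raised in sandy loam, using WP or EC formulations with 0.5% additive at 600 l water/ha. Effect is the visual percentage damage relative to untreated controls after about 3 weeks.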

[4] = system: Alopecurus myosuroides (ALOMY); assay: Herbicidal post-emergence action, section E (Table E2); conditions: application rate 320 g/ha, assessed visually after ca. 3 weeks; for pest or weed control at 320 g/ha: Alopecurus myosuroides, post-emergence, 504 h, read-out: post-emergence activity against ALOMY in %
Description: Seeds of mono- and dicotyledonous weed plants and crop plants were sown, in plastic or organic planting pots, in sandy loam, covered with soil and grown in a greenhouse under controlled growth conditions. 2 to 3 weeks after sowing, the test plants were sprayed in the single-leaf stage. The compounds according to the invention, formulated in form of wettable powders (WP) or as emulsifiable concentrates (EC), were sprayed onto the green plant parts as aqueous suspension or emulsion, with the addition of 0.5% of an additive, at an application rate of 600 l of water/ha (converted). The test plants were placed in the greenhouse for ca. 3 weeks under optimum growth conditions, and then the effect of the preparations was assessed visually in comparison with untreated controls (herbicidal effect in percent (%): 100% effect=plants have died off, 0% effect=as control plants).

[5] = system: Alopecurus myosuroides (ALOMY); assay: Herbicidal pre-emergence action, section A (Table A2); conditions: visual grading after ca. 3 weeks vs untreated controls
Procedure, shortened: as §2

Lolium rigidum (LOLRI) = assay: Herbicidal post-emergence action, section B (Table B5); conditions: visual rating about 3 weeks after treatment vs untreated controls; for pest or weed control at 1280 g/ha: Lolium rigidum, post-emergence, 504 h, read-out: post-emergence activity against LOLRI in %
Procedure, shortened: (§3)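 Under optimum greenhouse conditions, sandy-loam-grown weeds at the one-leaf stage are sprayed with aqueous suspension or emulsion carrying 0.5% additive, 600 liters per hectare. About 3 weeks later, visual percent activity is scored relative to untreated controls.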

Veronica persica (VERPE) = assay: Herbicidal post-emergence action, section B (Table B10); conditions: visual rating about 3 weeks after treatment vs untreated controls
Procedure, shortened: as §3

[6] = system: Amaranthus retroflexus (AMARE); assay: Herbicidal pre-emergence action, section C (Table C11); conditions: visual grading after ca. 3 weeks
Procedure, shortened: as §1

Setaria viridis (SETVI) = assay: Herbicidal pre-emergence action, section C (Table C8); conditions: visual grading after ca. 3 weeks; for pest or weed control at 80 g/ha: Setaria viridis, pre-emergence, 504 h, read-out: pre-emergence activity against SETVI in %
Procedure, shortened: as §1

[7] = system: Triticum aestivum (TRZAS); assay: Post-emergence effects on crop plants, section F (Table F2); conditions: application rate 80 g/ha; for percent crop plant damage (wheat, post-emergence) at 80 g/ha: Triticum aestivum, 504 h, read-out: post-emergence activity against TRZAS in %; for post-emergence activity against TRZAS in %: crop plant damage
Procedure, shortened: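 Sandy loam, greenhouse, controlled conditions. Spray at single-leaf stage (2–3 wk post-sowing); WP/EC aqueous suspension/emulsion + 0.5% additive, 600 l water/ha; rate ≤320 g/ha. Visual scoring ca. 3 wk post-spray vs untreated, % effect.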

[8] = Alopecurus myosuroides, pre-emergence, 504 h, application rate 1280 g/ha, read-out: pre-emergence activity against ALOMY in %
[9] = Veronica persica, post-emergence, 504 h, application rate 1280 g/ha, read-out: post-emergence activity against VERPE in %
[10] = Fallopia convolvulus, 504 h, application rate 80 g/ha, read-out: post-emergence activity against POLCO in %
[11] = Amaranthus retroflexus, pre-emergence, 504 h, application rate 320 g/ha, read-out: pre-emergence activity against AMARE in %

| Structure (SMILES) | pre-emergence activity against ECHCG in % ([1]; application rate 80 g/ha) [%] | pre-emergence activity against MATIN in % ([2]; application rate 320 g/ha) [%] | pre-emergence activity against STEME in % (Stellaria media (STEME); application rate 320 g/ha) [%] | post-emergence activity against POLCO in % ([3]; application rate 320 g/ha) [%] | post-emergence activity against ALOMY in % [4] [%] | pre-emergence activity against ALOMY in % ([5]; application rate 1280 g/ha) [%] | post-emergence activity against LOLRI in % (Lolium rigidum (LOLRI); application rate 1280 g/ha) [%] | post-emergence activity against VERPE in % (Veronica persica (VERPE); application rate 320 g/ha) [%] | pre-emergence activity against AMARE in % ([6]; application rate 320 g/ha) [%] | pest or weed control at 320 g/ha ([2]; application rate 320 g/ha) [%] | pest or weed control at 320 g/ha (Stellaria media (STEME); application rate 320 g/ha) [%] | pest or weed control at 80 g/ha (Setaria viridis (SETVI); application rate 80 g/ha) [%] | pest or weed control at 320 g/ha [4] [%] | pest or weed control at 1280 g/ha (Lolium rigidum (LOLRI); application rate 1280 g/ha) [%] | percent crop plant damage (wheat, post-emergence) at 80 g/ha [7] [%] | pre-emergence activity against SETVI in % (Setaria viridis (SETVI); application rate 80 g/ha) [%] | pre-emergence activity against ALOMY in % ([5]; application rate 320 g/ha) [%] | post-emergence activity against TRZAS in % [7] [%] | pre-emergence activity against AMARE in % ([6]; application rate 80 g/ha) [%] | further results |
| --- | --- | --- | --- | --- | --- | --- | --- | --- | --- | --- | --- | --- | --- | --- | --- | --- | --- | --- | --- | --- |
| COC(=O)CCC(=O)N1CSc2cc(C)c(-c3ccccc3F)nc21 [Example I-010] | 100 | 90 | 100 | 90 | 80 | 100 | 90 | 90 | 90 |  |  |  |  |  |  |  |  |  |  |  |
| Cc1cc2c(nc1-c1cccc(F)c1F)NCS2 [Example I-029, 5-(2,3-difluorophenyl)-6-methyl-2,3-dihydro[1,3]thiazolo[4,5-b]pyridine] |  |  |  |  |  |  |  |  |  | 90 | 90 | 100 | 80 | 90 | 10 |  |  |  |  | pest or weed control at 80 g/ha ([1]; application rate 80 g/ha): 100%; pest or weed control at 320 g/ha ([3]; Fallopia convolvulus, 504 h, application rate 320 g/ha, read-out: post-emergence activity against POLCO in %): 90%; pest or weed control at 1280 g/ha [5, 8]: 90%; pest or weed control at 1280 g/ha (Veronica persica (VERPE); [9]): 90%; pest or weed control at 80 g/ha ([6]; Amaranthus retroflexus, pre-emergence, 504 h, application rate 80 g/ha, read-out: pre-emergence activity against AMARE in %): 80% |
| CCS(=O)(=O)N1CSc2cc(C)c(-c3ccccc3F)nc21 [Example I-060, 3-(ethylsulfonyl)-5-(2-fluorophenyl)-6-methyl-2,3-dihydro[1,3]thiazolo[4,5-b]pyridine] |  |  |  |  |  |  |  |  |  | 90 | 90 | 100 | 90 | 90 | 0 |  |  |  |  | pest or weed control at 80 g/ha ([1]; application rate 80 g/ha): 100%; pest or weed control at 80 g/ha [3, 10]: 90%; pest or weed control at 1280 g/ha [5, 8]: 90%; pest or weed control at 320 g/ha (Veronica persica (VERPE); Veronica persica, post-emergence, 504 h, application rate 320 g/ha, read-out: post-emergence activity against VERPE in %): 90%; pest or weed control at 320 g/ha [6, 11]: 90% |
| Cc1cc2c(nc1-c1ccccc1F)N(C(=O)C1(C)CC(Cl)=NO1)CS2 (stereo not drawn) [Example I-083] | 100 |  | 90 | 90 | 90 |  | 90 | 90 | 90 |  |  |  |  |  |  | 100 | 100 |  |  | pre-emergence activity against MATIN in % ([2]; application rate 1280 g/ha): 90% |
| Cc1cc2c(nc1-c1ccccc1F)N(C(=O)C13CCCC1C(Cl)=NO3)CS2 (stereo not drawn) [Example I-104] | 100 | 100 | 90 | 90 | 80 |  |  | 90 |  |  |  |  |  |  |  | 100 | 90 | 0 | 80 | post-emergence activity against LOLRI in % (Lolium rigidum (LOLRI); application rate 320 g/ha): 90% |
| Cc1cc2c(nc1-c1ccccc1F)N(S(=O)(=O)Cc1ccc(F)cc1)CS2 [Example I-122] |  | 90 | 90 | 90 | 90 | 100 | 90 | 90 |  |  |  |  |  |  |  |  |  | 20 |  | pre-emergence activity against ECHCG in % ([1]; application rate 320 g/ha): 100%; pre-emergence activity against SETVI in % (Setaria viridis (SETVI); application rate 320 g/ha): 100% |
| CCOCCS(=O)(=O)N1C[S+]([O-])c2cc(C)c(-c3ccccc3F)nc21 (stereo not drawn) [Example I-127] |  |  |  |  |  |  |  |  |  | 100 | 90 | 100 | 90 | 90 | 0 |  |  |  |  | pest or weed control at 80 g/ha [3, 10]: 90%; pest or weed control at 320 g/ha ([5]; Alopecurus myosuroides, pre-emergence, 504 h, application rate 320 g/ha, read-out: pre-emergence activity against ALOMY in %): 100%; pest or weed control at 1280 g/ha (Veronica persica (VERPE); [9]): 90%; pest or weed control at 320 g/ha [6, 11]: 90% |
| COCC1(C(=O)N2CSc3cc(C)c(-c4ccccc4F)nc32)CC(Cl)=NO1 (stereo not drawn) [Example I-128] | 100 | 100 | 90 |  | 90 |  |  | 90 | 90 |  |  |  |  |  |  | 100 | 100 |  |  | post-emergence activity against POLCO in % ([3]; application rate 80 g/ha): 90%; post-emergence activity against LOLRI in % (Lolium rigidum (LOLRI); application rate 320 g/ha): 90% |
| Cc1ccccc1-c1nc2c(cc1C)SCN2C(=O)C1(C)CC(Cl)=NO1 (stereo not drawn) [Example I-137] | 100 | 90 |  | 80 | 80 |  |  |  |  |  |  |  |  |  |  | 100 | 90 | 0 | 90 | pre-emergence activity against STEME in % (Stellaria media (STEME); application rate 1280 g/ha): 100%; post-emergence activity against VERPE in % (Veronica persica (VERPE); application rate 1280 g/ha): 90% |
| CC1(C(=O)N2CSc3cc(Br)c(-c4ccccc4)nc32)CC(Cl)=NO1 (stereo not drawn) [Example I-139] |  |  | 90 | 90 | 80 | 90 |  |  |  |  |  |  |  |  |  |  |  | 0 | 90 | pre-emergence activity against ECHCG in % ([1]; application rate 320 g/ha): 100%; pre-emergence activity against MATIN in % ([2]; application rate 1280 g/ha): 90%; pre-emergence activity against SETVI in % (Setaria viridis (SETVI); application rate 320 g/ha): 100%; post-emergence activity against VERPE in % (Veronica persica (VERPE); application rate 1280 g/ha): 90% |
